{
  "source": "patent US20230097883A1",
  "about": "“ERGOTHIONEINE PET COMPOUNDS AND METHODS OF USE THEREOF” (VANDERBILT UNIVERSITY, priority 2021, published 2023)",
  "key": {"glucose metabolism": {"test_system": "glucose metabolism", "test": "[18F]FDG PET imaging of glucose metabolism after ERGO treatment", "format": "in vivo, mouse", "conditions": "6-month-old 5XFAD, ERGO 6 doses each 50 mg/Kg during 2 weeks, versus non-treated 5XFAD, n=3", "protocol": "The brain consumes a significant amount of glucose, approximately 25% of the body's glucose. It is well known that glucose metabolism is diminished in the early onset of AD. Therefore, [^18F]FDG PET imaging to assess glucose levels could be used for AD diagnosis. For this purpose, three cohorts of age-matched mice (6-month-old, n=3 for each cohort), including WT, non-treated 5XFAD and ERGO-treated 5XFAD (6 doses, each 50 mg/Kg during the course of 2 weeks) were studied. Afterward, animals were injected with [^18F]FDG probe (15 MBq, 100 μL/mouse) and underwent […] dynamic PET scans and CT scans.\nThe dynamic acquisition was divided into twelve 5-second frames, four 60-second frames, five 120-second frames, three 5-min frames, and six 10-min scans. The data from all possible lines of response (LOR) were saved in the list mode raw data format. The raw data were then binned into 3D sinograms with a span of 3 and ring difference of 47. The images were reconstructed into transaxial slices (128×128×159) with voxel sizes of 0.0815×0.0815×0.0796 cm^3, using the MAP algorithm with 16 subsets, 4 iterations, and a beta of 0.0468. For anatomical co-registration, immediately following the PET scans, the mice received a CT scan in a NanoSPECT/CT (Mediso, Wash. D.C.) at an X-ray beam intensity of 90 mAs and x-ray peak voltage of 45 kVp. […]"}, "[1]": {"test": "Cupric ion chelating (CIC) assay", "format": "biochemical", "conditions": "increasing ERGO concentrations", "text": "(§1) We also assessed ERGO's transition metal scavenging using cupric ion chelating (CIC) and ferrous ion chelating (FIC) assays. In these experiments, pyrocatechol violet or ferrozine forms a complex with free Cu(II) or Fe(II), respectively, resulting in a chromophore with a strong absorbance signal. The pyrocatechol violet-COI) complex has an absorbance lambda max (λmax) at 630 nm, and ferrozine-Fe(II) has a λmax at 562 nm. In the presence of ERGO, fewer free metals are available to form these complexes, resulting in less absorbance.\nThe copper chelating activity of ERGO was determined using a CIC assay (Zen-Bio Inc., Durham, N.C.). Assays contained triplicated samples, standards, background, and max absorbance wells. All the assay absorbance values were subtracted from the average background absorbance, comprising of water and assay buffer (1:1). Maximal absorbance was measured by averaging the absorbance values of 3 wells containing only CuSO4 and assay buffer. […] The plate was then read at 632 nm using a Biotek Synergy 4 plate reader. Absorbances were averaged, and the background absorbance was subtracted from the sample and maximum averages (Abstest and Absmax). Cupric ion chelating percentage was then calculated using the following equation: Cupric ion chelating (%)=100×(Absmax−Abstest)/Absmax."}, "[2]": {"test": "Ferrous ion chelating (FIC) assay", "format": "biochemical", "conditions": "increasing ERGO concentrations", "text": "as §1\nThe iron chelating activity of ERGO was determined using a FIC assay, which was obtained from Zen-Bio Inc. (Durham, N.C.). The assay was done on a 96-well plate with triplicated samples, standards, background, and max absorbance wells. All of the assay absorbance values were subtracted from the average background absorbance, comprising of water and assay buffer (1:1). Maximal absorbance was measured by averaging the absorbance values of 3 wells containing only FeSO4 and assay buffer. […] The assaying plate was incubated at room temperature for 10 minutes then the plate was read at 562 nm using a Biotek Synergy 4 plate reader. Absorbances were averaged, and the background absorbance was subtracted from the sample and maximum averages (Abstest and Absmax). […]"}, "Abeta": {"test_system": "Abeta", "test": "Abeta immunohistochemistry (6E10 antibody) of brain sections after ERGO treatment", "format": "in vivo, mouse", "conditions": "ERGO-treated versus non-treated 5XFAD mice, approx. 4 months of age", "protocol": "To confirm the in vivo observations, animals were perfused, and the brain sections were stained with anti-Abeta antibody, 6E10. […] In particular, we observed a clear difference in the hippocampus, pyramidal cortex and thalamus of non-treated compared to ERGO-treated 5XFAD mice (FIG. 3L, 3.30, 3.3R).\nQuantitative analysis of the PET imaging and IHC data was performed using imageJ software. The data was imported to GraphPad Prism version 9 for Mac (GraphPad Software, San Diego, Calif., USA) for statistical analysis. Differences between groups were tested using unpaired t-test."}},
  "data": [
    {"smiles": "C[N+](C)(C)[C@@H](Cc1c[nH]c(=S)[nH]1)C(=O)[O-]", "note": "[ERGO, L-ergothioneine]", "values": [
      {"measurement": "glucose levels in the brain ([18F]FDG uptake, SUV)", "setting": "glucose metabolism", "result": "significantly elevated"},
      {"measurement": "absorbance signal of pyrocatechol violet-Cu(II) complex", "setting": "[1]", "result": "decreased as the concentrations of ERGO increased in a dose-dependent fashion"},
      {"measurement": "absorbance signal of ferrozine-Fe(II) complex", "setting": "[2]", "result": "decreased as the concentrations of ERGO increased in a dose-dependent fashion"},
      {"measurement": "decrease in Abeta level (pixel counts), hippocampus", "setting": "Abeta", "result": 4, "unit": "fold"},
      {"measurement": "decrease in Abeta level (pixel counts), pyramidal cortex", "setting": "Abeta", "result": 5, "unit": "fold"},
      {"measurement": "decrease in Abeta level (pixel counts), thalamus", "setting": "Abeta", "result": 2, "unit": "fold"}
    ]}
  ]
}
